Reference: US20190135787A1, “PYRIMIDINE COMPOSITIONS, ULTRA-PURE COMPOSITIONS AND SALTS THEREOF, METHODS OF MAKING THE SAME, AND METHODS OF USING THE SAME FOR TREATING HISTAMINE H4 RECEPTOR (H4) MEDIATED DISEASES AND CONDITIONS” (Novartis AG, priority 2015, published 2019)

What was measured:
[1] = Salt screen: physical stability under accelerated aging conditions (HT-XRPD); format: physicochemical; details: 40° C., 75% RH, two days, code+number = crystalline salt form, 0 = crystalline counter ion itself
Procedure: XRPD patterns were obtained using the Crystallics T2 high-throughput XRPD set-up. The plates were mounted on a Bruker General Area Detector Diffraction System (GADDS) equipped with a VANTEC-500 gas area detector corrected for intensity and geometric variations. The calibration of the measurement accuracy (peaks position) was performed using NIST SRM1976 standard (Corundum).
Data collection was carried out at room temperature using monochromatic CuKα radiation in the 2θ region between 1.5° and 41.5°, which is the most distinctive part of the XRPD pattern. The diffraction pattern of each well was collected in two 20 ranges (1.5°≤2θ≤21.5° for the first frame, and 19.5°≤2θ≤41.5° for the second) with an exposure time of 90s for each frame. No background subtraction or curve smoothing was applied to the XRPD patterns.
Approximately 175 mg of N^4-(cyclopropylmethyl)-6-[(3R)-3-(methylamino)pyrrolidin-1-yl]pyrimidine-2,4-diamine in 1-Butanol and Dichloromethane were combined with a slight molar excess of either solid or liquid counter ion. Samples were incubated at RT. After 5 days the solids were collected, dried under vacuum and analyzed by HT-XRPD (XRPD 1).
Subsequently, the solids were exposed to accelerated aging conditions (40° C., 75% RH) for two days and re-analyzed by HT-XRPD (XRPD 2). Crystalline salts (polymorphs) are indicated with the abbreviated counter ion code and a number (1, 2, etc.). The number zero (0) indicates the crystalline counter ion itself.

[2] = Dynamic vapor sorption (DVS); format: physicochemical; details: 25° C.
Procedure: Moisture sorption isotherms were collected on a DVS-1 system from Surface Measurement Systems (London, UK). Typical sample size is between 5 and 10 mg of solid material. The relative humidity was cycled between 40% to 0% (desorption), up to 95% (sorption), back to 0% RH (desorption) and up to 95% RH (sorption) in steps of 10% at a constant temperature of 25° C. with an initial stabilizing step at 40% RH for 6 hours.

mild asthmatics = details: 36 mg, two single oral doses 12 hours apart; cited from earlier work
[3] = Phase 1 trials, single and multiple ascending doses; format: in vivo, human
Procedure: In phase 1 trials, 62 subjects were treated with ZPL-389.

[4] = test system: adult subjects with moderate to severe atopic dermatitis; test: Phase 2a study in moderate to severe atopic dermatitis; format: in vivo, human; details: 8 weeks
Procedure: Following the phase 1 trials, a phase 2a trial was conducted to evaluate the efficacy of 8 weeks of treatment with 30 mg ZPL-389 administered once daily in adult subject with moderate to severe atopic dermatitis. The study was also designed to assess the safety and tolerability of ZPL-389 in adult subjects with moderate to severe atopic dermatitis.
This study was a randomized, double blind, placebo controlled, parallel group study of subjects having a pruritus Numerical Rating Scale (NRS) of ≥5 (0-10 scale), an Investigator's Global Assessment (IGA)≥3 (0-3 scale), and moderate-severe AD Eczema Area and Severity Index (EAST)≥12 and ≤48 (0-72 scale). In addition, subjective patient reported outcome instruments include: Ziarco Itch Diary (Electronic) Pruritus; 5D Pruritus Scale; Dermatology Life Quality Index (DLQI); and Patient Global Impression of Change (PGIG).
Each subject (aged 18-65 years) had one or more screening visits to confirm suitability to enter the study. 98 subjects with moderate to severe atopic dermatitis were randomized 2:1 to receive orally either 30 mg ZPL-389 or placebo once daily for eight weeks (56 days).
Efficacy endpoints for the trial include the following: • change from baseline in NRS for pruritus (worst itch) over 24 hours; • change from baseline in daytime NRS for pruritus (worst itch); • change from baseline in night time NRS for pruritus (worst itch); • change from baseline in NRS for sleep disturbance; • change from baseline in duration of itching; • change from baseline in verbal rating score for pruritus; • change from baseline in EASI score; • change from baseline in SCORAD score; • IGA score; • amount of rescue medication use; and/or • PGIC.

Compound	XRPD2: solid form after accelerated aging ([1]; solid from 1-butanol)	XRPD2: solid form after accelerated aging ([1]; solid from dichloromethane)	further results
O=C(O)C(O)c1ccccc1 (racemic) [DL-Mandelic acid]	Amorphous	Amorphous	
CC(=O)Nc1ccc(C(=O)O)cc1 [4-acetamido-Benzoic acid]	ABen1 + ABen0	ABen1 + ABen0	
O=C(O)[C@H](O)[C@@H](O)C(=O)O [(+)-L-Tartaric acid]	Amorphous	Amorphous	
CC(=O)O [Acetic acid]	Amorphous	Amorphous	
O=C[C@H](O)[C@@H](O)[C@H](O)[C@H](O)C(=O)O [D-Glucuronic acid]	Amorphous	Amorphous	
O=S(=O)(O)CCS(=O)(=O)O [Ethane-1,2-disulfonic acid]	Eds1 + Eds2	Eds1	
CN[C@@H]1CCN(c2cc(NCC3CC3)nc(N)n2)C1.O.O.O=C(O)C(O)C(O)C(=O)O [Example 4, N^4-(cyclopropylmethyl)-6-[(3R)-3-(methylamino)pyrrolidin-1-yl]pyrimidine-2,4-diamine tartrate dihydrate]			total mass uptake ([2]; 20-30% RH): 6.9%; RH at which the dehydration step occurs during desorption [2]: below 10 % RH; water uptake (mass uptake) ([2]; between 0-20% RH): 1.9%; weight ([2]; between 30-90% RH): remains stable
O=C(O)c1cc(O)ccc1O [Gentisic acid]	Gen2	Gen2	
O=C(O)[C@H](O)[C@@H](O)[C@H](O)[C@H](O)CO [Gluconic acid]	Amorphous	Amorphous	
N[C@@H](CCC(=O)O)C(=O)O [Glutamic acid]	Gltm0	Amorphous	
O=C(O)CCCC(=O)O [Glutaric acid]	Glut1	Glut1	
O=C(O)CNC(=O)c1ccccc1 [Hippuric acid]	Amorphous	Amorphous	
Br [Hydrobromic acid]	Amorphous	Amorphous	
Cl [Hydrochloric acid]	Amorphous	Amorphous	
N[C@@H](CC(=O)O)C(=O)O [L-Aspartic acid]	Asp0	Amorphous	
CS(=O)(=O)O [Methanesulfonic acid]	Amorphous	Amorphous	

Compound	XRPD2: solid form after accelerated aging ([1]; solid from 1-butanol)	XRPD2: solid form after accelerated aging ([1]; solid from dichloromethane)	further results
O=S(=O)(O)c1ccc2ccccc2c1 [Naphtalene-2-sulfonic acid]	Nap1 + Nap0	Amorphous	
O=P(O)(O)O [Phosphoric acid]	Pho2 plus	Pho3	
O=C(O)c1ccccc1O [Salicylic acid]	Sal1 plus	Amorphous	
CCCCCCCCCCCCCCCCCC(=O)O [Stearic acid]	Ste0 + Ste1	Ste0 + Ste1	
O=S(=O)(O)O [Sulfuric acid]	Amorphous	Amorphous	
CN[C@@H]1CCN(c2cc(NCC3CC3)nc(N)n2)C1 [ZPL-389, N^4-(cyclopropylmethyl)-6-[(3R)-3-(methylamino)pyrrolidin-1-yl]pyrimidine-2,4-diamine]			efficacy in mild asthma (mild asthmatics): no efficacy was observed; pharmacokinetics, dose dependence ([3]; phase 1 trials): dose-proportional pharmacokinetics; majority of observed adverse events ([3]; single doses 0.01-48 mg, 5, 15 and 50 mg once daily for 14 days): mild, transient, and non-dose related; tolerability ([3]; single doses 0.01-48 mg, 5, 15 and 50 mg once daily for 14 days, 62 subjects): safely tolerated; Treatment Emergent Adverse Events (TEAE) vs placebo ([4]; 30 mg once daily): no differences; rescue medication use vs placebo ([4]; 30 mg once daily): lower; tolerability / safety profile ([4]; 30 mg once daily, comparable to placebo): well tolerated; pruritus ([4]; 30 mg once daily, statistically significant compared to baseline): markedly reduced; IGA reduction ([4]; 30 mg orally once daily, placebo 25%): 36%
(−)-L-Malic acid	Amorphous	Amorphous	
Benzenesulfonic acid	Amorphous	Amorphous	
Benzoic acid	Ben1 + Ben2 plus	Ben1 + Ben2 plus	
Citric acid	Amorphous	Amorphous	
Ethanesulfonic acid	Amorphous	Amorphous	
Fumaric acid	Amorphous	Fum0 + Fum3	
Lactic acid	Amorphous	Amorphous	
Maleic acid	Amorphous	Amorphous	
Oxalic acid	Oxa3	Oxa3	
